Source: ChEMBL document CHEMBL3352139, “Unambiguous Determination of the Absolute Configuration of Dimeric Stilbene Glucosides from the Rhizomes of Gnetum africanum” (J Nat Prod, 2014)

Biological target: Amyloid-beta precursor protein (Homo sapiens) (UniProt P05067)
Experiment: Inhibition of Amyloid beta (25 to 35) (unknown origin) polymerization assessed as reduction in beta-amyloid fibril formation at 10 uM after 6 hrs by UV-visible spectroscopy

Amyloid-beta precursor protein (Homo sapiens), sequence (P05067 whole entry): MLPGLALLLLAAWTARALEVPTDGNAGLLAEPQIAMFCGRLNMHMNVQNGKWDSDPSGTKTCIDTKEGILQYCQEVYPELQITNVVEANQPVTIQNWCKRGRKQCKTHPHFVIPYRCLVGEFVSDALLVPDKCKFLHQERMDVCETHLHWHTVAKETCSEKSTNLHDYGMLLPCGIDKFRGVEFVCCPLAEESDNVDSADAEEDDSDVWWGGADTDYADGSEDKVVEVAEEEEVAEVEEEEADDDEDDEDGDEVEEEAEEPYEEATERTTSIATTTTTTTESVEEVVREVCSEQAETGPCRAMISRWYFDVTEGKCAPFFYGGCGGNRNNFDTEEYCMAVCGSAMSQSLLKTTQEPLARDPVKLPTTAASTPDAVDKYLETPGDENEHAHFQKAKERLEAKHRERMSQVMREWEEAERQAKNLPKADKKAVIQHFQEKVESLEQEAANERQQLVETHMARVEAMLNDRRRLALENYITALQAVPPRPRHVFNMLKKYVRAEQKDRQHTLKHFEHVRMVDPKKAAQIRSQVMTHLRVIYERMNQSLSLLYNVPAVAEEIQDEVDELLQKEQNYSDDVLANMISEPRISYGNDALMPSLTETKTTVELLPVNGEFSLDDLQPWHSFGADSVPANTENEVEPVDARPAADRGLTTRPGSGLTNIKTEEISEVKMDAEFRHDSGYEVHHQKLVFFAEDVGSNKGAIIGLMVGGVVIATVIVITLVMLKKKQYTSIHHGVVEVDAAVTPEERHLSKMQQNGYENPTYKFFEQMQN

| inhibition | Compound |
| --- | --- |
| 58% | OC[C@H]1O[C@@H](Oc2ccc([C@H]3Oc4cc(/C=C/c5ccc(O)cc5)cc(O)c4[C@@H]3c3cc(O)cc(O)c3)cc2)[C@H](O)[C@@H](O)[C@@H]1O |
| 54% | OC[C@H]1O[C@@H](Oc2ccc(/C=C/c3cc(O)c4c(c3)O[C@H](c3ccc(O)cc3)[C@H]4c3cc(O)cc(O)c3)cc2)[C@H](O)[C@@H](O)[C@@H]1O |
| 56% | OC[C@H]1O[C@@H](Oc2ccc(/C=C/c3cc(O)c4c(c3)O[C@H](c3ccc(O[C@@H]5O[C@H](CO)[C@@H](O)[C@H](O)[C@H]5O)cc3)[C@H]4c3cc(O)cc(O)c3)cc2)[C@H](O)[C@@H](O)[C@@H]1O |
| 56% | OC[C@H]1O[C@@H](Oc2ccc(/C=C/c3cc(O)c4c(c3)O[C@@H](c3ccc(O[C@@H]5O[C@H](CO)[C@@H](O)[C@H](O)[C@H]5O)cc3)[C@@H]4c3cc(O)cc(O)c3)cc2)[C@H](O)[C@@H](O)[C@@H]1O |
